Data on 24 compounds can be found in patent US20130172345A1, “1-ACYL-4-(PHENOXY, BENZYLOXY, OR PHENYLAMINO)-1,2,3,4-TETRAHYDROQUINOLINE DERIVATIVES” (KOWA COMPANY, LTD., priority 2007, published 2013).

Assay [1] relates to HepG2 cells originating from human liver cancer. In words: EPO production in HepG2 cells (EPO ELISA of culture supernatant, 4% oxygen, 48 hrs). The assay is classed as cell-based. Conditions: test compound 3 μM, oxygen 4%, non-stimulated state = 100%, read-out: EPO production amount, % of control (3 μM). The method, then: HepG2 cells originating from human liver cancer were seeded at a density of 1×10^4 cells per well on a 24-well plate by using minimum essential medium (MEM, manufactured by Sigma) comprising 10% bovine fetal serum. Next day, the medium was exchanged with Dulbecco's modified eagle medium (DMEM, manufactured by Sigma) comprising 10% bovine fetal serum lacking phenol red. Then, the test compound dissolved in DMSO was added thereto to obtain the final concentration of 3 μM or 10 μM while having 400 μl of the medium per well. The cells were incubated for 48 hrs in a CO2 incubator which had been adjusted to have oxygen concentration of 4%, followed by collecting the culture supernatant. The EPO concentration in the culture supernatant was immediately measured by using EPO ELISA kit (manufactured by Roche Diagnostics K.K.). Specific procedures were carried out according to the manufacturer's protocol included in the kit.
When EPO production amount in non-stimulated state, i.e., without addition of any compound, was 100%, the EPO production amount induced by each compound was calculated (% of control).
On the technique in general: In an ELISA, binding on a coated surface is turned into a signal by an enzyme label.

Assay [2] concerns K562 cells, human proerythroblast cells. In words: Hemoglobin production in K562 cells (fluorescence of the porphyrin ring). The format is cell-based. The following applies: 144 h, test compound 6 μM, 3+3 days, non-stimulated state = 100%, read-out: production amount of hemoglobin, % of control (6 μM). The procedure, abridged:
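K562 cells at 1×10^5 cells/mL in RPMI-1640 with 10% FBS, exposed to compound 3 days, medium exchanged, then 3 more days at 37 °C, 5% CO2. Hemoglobin from 3×10^5 cells measured as porphyrin fluorescence after boiling 30 min in 2 M oxalic acid; expressed as % of untreated control.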

Counter-ions that a name gives are not always drawn.

Turning to `CC(=O)N1c2ccccc2C(Nc2ccc(C(C)C)cc2)CC1C` (stereo not drawn) [Compound 21, 1-acetyl-4-[(4-isopropylphenyl)amino]-2-methyl-1,2,3,4-tetrahydroquinoline], the activity at 3 µM in assay [1] was 231%. In addition, in assay [2], the activity at 6 µM turned out to be 301%.
With `CC(=O)N1c2ccccc2C(Nc2ccc(CO)cc2)CC1C` (stereo not drawn) [Compound 38, 1-acetyl-4-[(4-hydroxymethylphenyl)amino]-2-methyl-1,2,3,4-tetrahydroquinoline], the activity at 3 µM in assay [1] was found to be 201%. Also, the activity at 6 µM in assay [2] stood at 190%.
In the case of `CC(=O)N1c2ccccc2C(Nc2ccc(NS(C)(=O)=O)cc2)CC1C` (stereo not drawn) [Compound 39, 1-acetyl-4-[(4-methanesulfonylamidephenyl)amino]-2-methyl-1,2,3,4-tetrahydroquinoline], in assay [1], the activity at 3 µM was 131%. For the same compound, the activity at 6 µM in assay [2] was 327%.
As to `CC(=O)N1c2ccc(N3CCOCC3)cc2C(Nc2ccc(Cl)cc2)CC1C` (stereo not drawn) [Compound 40, 1-acetyl-4-[(4-chlorophenyl)amino]-2-methyl-6-morpholino-1,2,3,4-tetrahydroquinoline.hydrochloride], the activity at 3 µM in assay [1] turned out to be 144%. The activity at 6 µM in assay [2] came to 256%.
The like results for `CC(=O)N1c2ccc(C(=O)O)cc2C(Nc2ccc(Cl)cc2)CC1C` (stereo not drawn) [Compound 42, 1-acetyl-4-[(4-chlorophenyl)amino]-2-methyl-1,2,3,4-tetrahydroquinoline-6-carboxylic acid] were, in that order, 102% and 303%.
Take `CC(=O)N1c2cc(N3CCOCC3)ccc2C(Nc2ccc(Cl)cc2)CC1C` (stereo not drawn) [Compound 44, 1-acetyl-4-[(4-chlorophenyl)amino]-2-methyl-7-morpholino-1,2,3,4-tetrahydroquinoline]: the activity at 3 µM in assay [1] is 301%. Besides, the activity at 6 µM in assay [2] was 162%.
The like results for `CC(=O)N1c2ccc(NS(C)(=O)=O)cc2C(Nc2ccc(Cl)cc2)CC1C` (stereo not drawn) [Compound 45, 1-acetyl-4-[(4-chlorophenyl)amino]-2-methyl-6-methanesulfonylamino-1,2,3,4-tetrahydroquinoline] were, in that order, 286% and 387%.
Turning to `CC(=O)N1c2ccccc2C(N(C)c2ccccc2)CC1C` (stereo not drawn) [Compound 46, 1-acetyl-4-(N-methyl-N-phenylamino)-2-methyl-1,2,3,4-tetrahydroquinoline], the activity at 3 µM in assay [1] was 391%. In addition, the activity at 6 µM in assay [2] was found to be 326%.
The like results for `CC1CC(Nc2ccccc2)c2ccccc2N1C(=O)C1CC1` (stereo not drawn) [Compound 47, 1-cyclopropanecarbonyl-2-methyl-4-phenylamino-1,2,3,4-tetrahydroquinoline] were, in that order, 292% and 701%.
Taken in the same sequence, the figures for `CCOC(=O)c1ccc2c(c1)C(Oc1ccc(F)cc1)CC(C)N2C(C)=O` (stereo not drawn) [Compound 53, ethyl 1-acetyl-4-(4-fluorophenoxy)-2-methyl-1,2,3,4-tetrahydroquinoline-6-carboxylate] were 134% and 307%.
The like results for `CNC(=O)N1c2ccc(F)cc2C(Nc2ccc(F)cc2)CC1C` (stereo not drawn) [Compound 65, 6-fluoro-4-[(4-fluorophenyl)amino]-2-methyl-1-N-methylcarbamoyl-1,2,3,4-tetrahydroquinoline] were, in that order, 414% and 461%.
On to `COCc1ccc(NC2CC(C)N(C(C)=O)c3ccccc32)cc1` (stereo not drawn) [Compound 69, 1-acetyl-4-[(4-methoxymethylphenyl)amino]-2-methyl-1,2,3,4-tetrahydroquinoline], for which the activity at 3 µM in assay [1] was 150%. Moreover, the activity at 6 µM in assay [2] came out at 407%.
For `CC(=O)N1c2ccccc2C(Nc2ccc(CC(=O)O)cc2)CC1C` (stereo not drawn) [Compound 71, 1-acetyl-4-[(4-carboxymethylphenyl)amino]-2-methyl-1,2,3,4-tetrahydroquinoline], the activity at 3 µM in assay [1] is 149%. Besides, the activity at 6 µM in assay [2] was 150%.
The like results for `CC(=O)N1c2ccccc2C(Nc2ccccc2N2CCOCC2)CC1C` (stereo not drawn) [Compound 72, 1-acetyl-2-methyl-4-[(2-morpholinophenyl)amino]-1,2,3,4-tetrahydroquinoline] were, in that order, 243% and 577%.
Turning to `CC(=O)N1c2ccc(Br)cc2C(Nc2ccc(Cl)cc2)CC1C` (stereo not drawn) [Compound 74, 1-acetyl-6-bromo-4-[(4-chlorophenyl)amino]-2-methyl-1,2,3,4-tetrahydroquinoline], the activity at 3 µM in assay [1] is 398%. For the same compound, the activity at 6 µM in assay [2] is 375%.
The like results for `CC(=O)N1c2ccccc2C(Nc2ccc(CC(N)=O)cc2)CC1C` (stereo not drawn) [Compound 75, 1-acetyl-4-[(4-carbamoylmethylphenyl)amino]-2-methyl-1,2,3,4-tetrahydroquinoline] were, in that order, 346% and 282%.
Taken in the same sequence, the figures for `CC(=O)N1c2ccccc2C(Nc2ccc(N3CCNCC3)cc2)CC1C` (stereo not drawn) [Compound 76, 1-acetyl-2-methyl-4-[(4-piperazinylphenyl)amino]-1,2,3,4-tetrahydroquinoline] were 227% and 185%.
As for `CC(=O)N1c2ccc(N3CCN(C(=O)C4CCCCC4)CC3)cc2C(Nc2ccc(Cl)cc2)CC1C` (stereo not drawn) [Compound 85, 1-acetyl-4-[(4-chlorophenyl)amino]-6-[(4-cyclohexylcarbonyl)piperazino]-2-methyl-1,2,3,4-tetrahydroquinoline], the activity at 3 µM in assay [1] is 147%. In addition, the activity at 6 µM in assay [2] was 189%.
The like results for `CC(=O)N1c2ccc(C(N)=O)cc2C(Nc2ccc(N3CCOCC3)cc2)CC1C` (stereo not drawn) [Compound 92, 1-acetyl-2-methyl-4-[(4-morpholinophenyl)amino]-1,2,3,4-tetrahydroquinoline-6-carboxamide] were, in that order, 192% and 128%.
With `CC(=O)N1c2ccc(N)cc2C(Nc2ccc(Cl)cc2)CC1C` (stereo not drawn) [Compound 95, 1-acetyl-6-amino-4-[(4-chlorophenyl)amino]-2-methyl-1,2,3,4-tetrahydroquinoline], the activity at 3 µM in assay [1] stood at 213%. Besides, in assay [2], the activity at 6 µM amounted to 158%.
The like results for `CCOC(=O)Nc1ccc2c(c1)C(Nc1ccc(Cl)cc1)CC(C)N2C(C)=O` (stereo not drawn) [Compound 97, 1-acetyl-4-[(4-chlorophenyl)amino]-2-methyl-1,2,3,4-tetrahydroquinoline-6-ethylcarbamate] were, in that order, 264% and 553%.
The like results for `CCOC(=O)c1ccc2c(c1)C(Nc1ccc(CC#N)cc1)CC(C)N2C(C)=O` (stereo not drawn) [Compound 103, ethyl 1-acetyl-4-[(4-cyanomethylphenyl)amino]-2-methyl-1,2,3,4-tetrahydroquinoline-6-carboxylate] were, in that order, 108% and 485%.
Taken in the same sequence, the figures for `CC(=O)N1c2ccc(C(N)=O)cc2C(Nc2ccc(CC#N)cc2)CC1C` (stereo not drawn) [Compound 104, 1-acetyl-4-[(4-cyanomethylphenyl)amino]-2-methyl-1,2,3,4-tetrahydroquinoline-6-carboxamide] were 204% and 536%.
As to `CC(=O)N1c2cc(NS(C)(=O)=O)ccc2C(Nc2ccc(Cl)cc2)CC1C` (stereo not drawn) [Compound 107, 1-acetyl-4-[(4-chlorophenyl)amino]-7-methanesulfonylamino-2-methyl-1,2,3,4-tetrahydroquinoline.hydrochloride], in assay [1], the activity at 3 µM was determined as 130%. For the same compound, the activity at 6 µM in assay [2] is 139%.
